Test results from ChEMBL document CHEMBL1154198, “Chemical genetics of Plasmodium falciparum” (Nature, 2010).

Columns and labels:
[1] = test system: Plasmodium falciparum; test: ST_JUDE: Plasmodium falciparum K1 EC50 (uM) as measured by SYBR green dye; format: functional, organism-based
[2] = test system: Plasmodium falciparum; test: ST_JUDE: Plasmodium falciparum 3D7 EC50 (uM) as measured by SYBR green dye; format: functional, organism-based

SMILES | EC50 [1] [µM] | EC50 [2] [µM]
Oc1ccc(C(c2ccc(O)cc2)C(Cl)(Cl)Cl)cc1 | 3.6 | 3.95
O=C(Nc1ccc(Br)cc1)Nc1cccc(Cl)c1 | 5.49 | > 15
COc1ccc2nc(C)cc(Nc3ccc(Cl)c(Cl)c3)c2c1 | 4.84 | 1.14
CCCCOc1ccc(N2C(N)=NC(N)=NC2(C)C)cc1 | > 15 | 2.79
COCCCNc1nc2cc(OC)c(OC)cc2c2nc(-c3ccccc3)nn12 | > 15 | 0.0855
COc1ccc(-c2nonc2NC(=O)c2ccc(C(C)(C)C)cc2)cc1OC | 1.17 | 1.06
Oc1ccc(Cl)cc1Nc1nc(C(F)(F)F)nc2ccccc12 | 0.638 | 1.2
Nc1ccc(-c2nc3cc(Cc4ccc5[nH]c(-c6ccc(N)cc6)nc5c4)ccc3[nH]2)cc1 | 1.13 | 1.08
O=C(Cc1ccccc1)N1CCOc2c(cc(-c3csc4ccccc34)cc2OCCc2ccccn2)C1 | 0.762 | 1.63
COc1ccc2nc(C)cc(Nc3cccc(Cl)c3)c2c1 | 9.41 | 1.24
O=C(Nc1ccccc1Cl)c1cc2ccccc2cc1O | 0.547 | > 15
CC(=O)N(C1=C(N2CCCCC2)C(=O)c2ccccc2C1=O)c1ccc(F)cc1 | 3.89 | 2.72
CCSCCN1C(=O)CSC1c1cnccc1-c1ccc(Br)cc1 (stereo not given) | > 15 | 4.91
COC(=O)c1ccc(NC(=O)CN(Cc2ccc(Cl)cc2)S(=O)(=O)c2ccccc2)cc1 | 5.1 | 7.32
CCN(CC)S(=O)(=O)c1ccc(C(=O)NNc2nc3c(OC)ccc(OC)c3s2)cc1 | 3.93 | > 15
Cc1nc2c3cc(F)ccc3n(C)c2s1 | > 15 | > 15
O=C1/C(=C/c2ccc(F)cc2)Oc2c1ccc(O)c2CN1CCCCC1 | 0.469 | 2.03
O=Cc1ccc2noc(-c3ccc(Cl)cc3)c2c1 | > 15 | > 15
Cc1ccc2ccc(C(Nc3ccccn3)c3ccncc3)c(O)c2n1 (stereo not given) | > 15 | 6.5
CCCO/C(O)=C1\C(C)=NC2=C(C(=O)CC(c3ccccc3)C2)C1c1cc(Cl)c(O)c(OC)c1 (stereo not given) | 2.88 | 3.35
COc1ccccc1NC(=O)CN1CCN(C(=O)c2ccco2)CC1 | 4.84 | 2.84
CCN(CC)CCn1c(=N)n(CC(O)COc2ccccc2C)c2ccccc21 (stereo not given) | 4.48 | 4.06
COC(=O)c1cn(NC(=O)c2cccc(F)c2)c(=O)c2ccccc12 | > 15 | 6.66
Cc1ccc2ccc(C(Nc3ccccn3)c3cccc(Br)c3)c(O)c2n1 (stereo not given) | 4.78 | > 15

SMILES | EC50 [1] [µM] | EC50 [2] [µM]
O=C(Nc1ccc(F)c(F)c1)c1ccc(=O)n(Cc2cccc([N+](=O)[O-])c2)c1 | > 15 | > 15
Cc1ccc(/C=C2\C(=O)NC(=O)N(c3ccc(Br)cc3)C2=O)cc1[N+](=O)[O-] | 5.16 | 4.47
COc1ccc(Cl)c2sc(N(Cc3cccnc3)C(=O)c3ccc(C(C)=O)cc3)nc12 | 3.86 | 4.06
O=C(CC1N=C2c3ccccc3N=C(SCc3cccc(F)c3)N2C1=O)NCc1ccco1 (stereo not given) | 2.01 | 2.31
CN1CCN(c2ccc(NC(=O)c3cccc(I)c3)cc2Cl)CC1 | > 15 | 7.44
CCCCNC(=S)NCCc1c(C)[nH]c2ccccc12 | > 15 | > 15
CCc1cc(Br)ccc1NC(=O)Nc1ccc([N+](=O)[O-])cc1 | > 15 | > 15
COCCN1C(=O)c2ccccc2C(C(=O)Nc2ccc(OC)c(Cl)c2)C1c1cccs1 (stereo not given) | 2.48 | 2.01
Cc1cccc(NS(=O)(=O)c2cc3c4c(c2)CCN4C(=O)CC3)c1 | > 15 | > 15
CC[N+](C)(CC)CCCOc1ccc2c(c1)C(=O)c1cc(OCCC[N+](C)(CC)CC)ccc1-2 | 0.413 | 0.655
O=C1c2ccccc2C(=O)c2cc(S(=O)(=O)N(CCO)CCO)ccc21 | 3.21 | 5.89
CCS(=O)(=O)c1ccccc1C(=O)Nc1nc(-c2ccccn2)cs1 | 5.14 | 6.53
Cc1ccc(N(CC(=O)NCCSc2ccc(Cl)cc2)S(=O)(=O)c2ccc(F)cc2)cc1 | > 15 | > 15
CC(C)(C)c1ccc(C(=O)Nc2nc3c(s2)CN(Cc2ccccc2)CC3)cc1 | > 15 | > 15
COc1ccc(Nc2cc(C)nc(Nc3ccc(NS(=O)(=O)c4cccc(Cl)c4)cc3)n2)cc1 | > 15 | 2.39
O=C(Nc1ccc(F)c(Cl)c1)Nc1ccc(Cl)c(Cl)c1 | 1.63 | 5.41
COc1ccc(CCNC(=S)Nc2ccccc2SC)cc1OC | 4.3 | 5.2
CSc1cccc(NC(=O)Cn2c(C)c(C=O)c3ccccc32)c1 | 4.29 | 4.56
CS(=O)(=O)Nc1ccc2c(c1)CCCN2C(=O)c1cccs1 | 7.55 | > 15
CCOCCCNC(=O)c1cc2c(-c3cccc(OC)c3)nn(C)c2s1 | > 15 | > 15
Cc1cccc(NC2=C(N3CCCCC3)C(=O)c3ccccc3C2=O)c1 | 0.181 | 0.0527
C=CCOc1cccc(C(Nc2cc(C)ccn2)c2ccc3cccnc3c2O)c1 (stereo not given) | 4.09 | 3.17
CCCO/C(O)=C1\C(C)=NC2=C(C(=O)CC(c3ccccc3OC)C2)C1c1ccc([N+](=O)[O-])cc1 (stereo not given) | 1.15 | 0.759
Cc1ccccc1OCC(O)Cn1c(=N)n(CCN2CCCCC2)c2ccccc21 (stereo not given) | 5.4 | 4.76

SMILES | EC50 [1] [µM] | EC50 [2] [µM]
O=S(=O)(/N=C(\Nc1ccc(Br)cc1)c1ccccc1)c1ccccc1 | > 15 | > 15
COc1ccc(C)cc1S(=O)(=O)Nc1ccc(Nc2nc(C)cc(N3CCCC3)n2)cc1 | > 15 | 0.759
O=C(CSc1nccn1-c1ccc([N+](=O)[O-])cc1)N1CCc2ccccc21 | > 15 | > 15
CCCCC(O)(c1ccc(Cl)cc1)C(CN1CCOCC1)c1ccc(Cl)cc1 (stereo not given) | 1.64 | 4.01
Fc1ccc(Nc2nc(NCCN3CCOCC3)nc3c2cnn3-c2ccccc2)cc1 | 6.75 | > 15
CO/C(O)=C1\C(C)=NC2=C(C(=O)CC(c3ccc(OC)c(OC)c3)C2)C1c1cccc(C)c1 (stereo not given) | 3.86 | 3.69
COc1ccc(Cl)cc1NC(=O)CSc1nc(-c2ccccc2Cl)ns1 | 2.66 | 1.43
COc1ccc(NC(=O)c2c(-c3c(Cl)cccc3Cl)noc2C)c(OC)c1 | 5.43 | > 15
O=C(c1cccc(Cl)c1)N(Cc1cccnc1)c1nc2c(F)cccc2s1 | 6.68 | > 15
CCN(CC)c1cc(C)nc(Nc2ccc(NS(=O)(=O)c3cc(C)ccc3OC)cc2)n1 | > 15 | 4.17
COC(=O)C1C(O)=C2C(=Nc3ccccc3NC2c2ccccc2OC(C)C)CC1C (stereo not given) | > 15 | > 15
CCCCN(CC)CCNC(=O)c1cc2c(-c3ccccc3F)nn(C)c2s1 | > 15 | 2.07
CCCN(CCC)Cc1c(O)ccc2c(=O)c(Oc3ccc(OC)cc3)c(C(F)(F)F)oc12 | 2.95 | > 15
COC(=O)c1ccc(Nc2nc(NCc3ccco3)c3ccccc3n2)cc1 | 8.54 | 4.89
COc1ccc(-c2nn(C)c3sc(C(=O)Nc4cccc(Cl)c4)cc23)cc1OC | 6.94 | > 15
Cc1cc(C)c2nc(NNC(=O)c3ccc(S(=O)(=O)N(C)C)cc3)sc2c1 | 4.88 | 6.63
CCN(CC)c1cc(C)c2cc(NC(=O)c3cccc(F)c3)ccc2n1 | 8.08 | 1.99
CC(=O)N(C1=C(N(C)C)C(=O)c2ccccc2C1=O)c1cccc(I)c1 | 0.0862 | 0.0566
CCc1cc2c(=O)c(Oc3ccc(Cl)cc3)coc2cc1OC(C)=O | > 15 | > 15
C=CC[n+]1c(C)n(N)c2ccccc21 | > 15 | > 15
Cc1ccc(-c2nc3ccccc3o2)cc1NC(=O)C(Cl)(Cl)Cl | 1.7 | 4.07
O=C(Nc1ccc(Cl)cc1)Nc1cc(OCC(F)(F)F)cc(OCC(F)(F)F)c1 | 0.466 | 1.36
